# Reference: patent publication US20250042920A1 (OCEAN UNIVERSITY OF CHINA, priority 2021, published 2025)
# Assays:
# MNK2 = MNK2 (Homo sapiens, UniProt Q9HBH9); experiment: MNK2 kinase inhibition assay (LANCE Ultra kinase activity assay, PerkinElmer); type: biochemical; conditions: 100 μM ATP; for IC50: five concentrations 10000-1 nM; for inhibition at 1 µM: inhibition rate at 1000 nM compound, 60 min, 25° C., read-out: Inhibitory activity(1 μM) MNK2
# Experimental: (§1) MNK1 and MNK2 kinase inhibition assays were performed using LANCE Ultra kinase activity assay developed by PerkinElmer. […] The test steps are as follows: At 25° C., 1.00 ng MNK1 or 0.05 ng MNK2 was prepared with different concentrations (10000, 1000, 100, 10, 1 nM) of the tested compound to form a total volume of 10 μL reaction mixture (MNK1: 12.5 nM CREB, 450 μM ATP, 2 mM DTT, 1× buffer; MNK2: 12.5 nM CREB, 100 μM ATP, 2 mM DTT, 1×buffer), and incubation for 60 min. The reaction was terminated by adding 5 μL EDTA/Detection buffer and 5 μL Eu-CREB/Detection buffer. The ratio of HTRF signals at 615 nm and 665 nm was detected after 60 min of incubation. The inhibition rate was calculated by measuring the compounds at 1000 nM.
# (§2) Then five different concentrations (10000, 1000, 100, 10, 1 nM) of the tested compounds were measured, and the IC50 value was calculated according to the inhibition rate fitting curve.
# MNK1 = MNK1 (Homo sapiens, UniProt Q9BUB5); experiment: MNK1 kinase inhibition assay (LANCE Ultra kinase activity assay, PerkinElmer); type: biochemical; conditions: 450 μM ATP; for IC50: five concentrations 10000-1 nM; for inhibition at 1 µM: inhibition rate at 1000 nM compound, 60 min, 25° C., read-out: Inhibitory activity(1 μM) MNK1
# Experimental: as §1, §2
# Sequence of MNK1 (Q9BUB5 whole entry): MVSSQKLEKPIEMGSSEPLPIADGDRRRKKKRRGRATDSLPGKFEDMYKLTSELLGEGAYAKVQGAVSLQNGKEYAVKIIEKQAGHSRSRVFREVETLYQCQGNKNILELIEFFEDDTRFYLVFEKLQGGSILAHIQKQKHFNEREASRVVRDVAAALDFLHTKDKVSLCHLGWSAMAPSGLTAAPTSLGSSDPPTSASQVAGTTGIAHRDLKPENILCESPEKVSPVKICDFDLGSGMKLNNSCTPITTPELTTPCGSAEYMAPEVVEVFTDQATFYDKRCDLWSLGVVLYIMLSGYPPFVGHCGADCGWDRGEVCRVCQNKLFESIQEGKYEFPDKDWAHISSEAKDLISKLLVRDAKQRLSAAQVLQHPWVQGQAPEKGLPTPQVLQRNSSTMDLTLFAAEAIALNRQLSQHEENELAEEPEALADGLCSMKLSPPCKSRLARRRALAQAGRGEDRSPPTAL
# Sequence of MNK2 (Q9HBH9 whole entry): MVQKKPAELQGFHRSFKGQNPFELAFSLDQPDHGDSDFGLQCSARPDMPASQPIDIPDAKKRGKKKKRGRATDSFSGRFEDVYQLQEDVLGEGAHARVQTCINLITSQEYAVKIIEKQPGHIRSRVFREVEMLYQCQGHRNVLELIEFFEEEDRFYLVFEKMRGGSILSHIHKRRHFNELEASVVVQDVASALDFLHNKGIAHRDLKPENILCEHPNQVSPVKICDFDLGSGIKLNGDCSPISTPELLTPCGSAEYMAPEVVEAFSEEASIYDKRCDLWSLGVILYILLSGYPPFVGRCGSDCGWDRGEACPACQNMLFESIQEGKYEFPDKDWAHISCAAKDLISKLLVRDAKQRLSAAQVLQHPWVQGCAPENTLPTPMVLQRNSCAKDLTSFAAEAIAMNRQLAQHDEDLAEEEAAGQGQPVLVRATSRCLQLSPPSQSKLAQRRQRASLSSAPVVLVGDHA
IC50 (MNK2),inhibition at 1 µM (MNK2),IC50 (MNK1),inhibition at 1 µM (MNK1),Structure (SMILES)
50 to 200 nM,> 75%,50 to 200 nM,> 75%,"CN1CCN(C(=O)c2ccc(-c3nn4c(-c5ccc(C#N)c(F)c5)cnc4s3)cc2)CC1 [Compound 24, 2-fluoro-4-(2-(4-(4-methylpiperazine-1-carbonyl)phenyl)imidazo[2,1-b][1,3,4]thiadiazol-5-yl)benzonitrile]"
< 50 nM,> 75%,< 50 nM,> 75%,"CN1CCN(C(=O)c2ccc(-c3nn4c(-c5ccc([N+](=O)[O-])cc5)cnc4s3)cc2)CC1 [Compound 25, (4-methylpiperazin-1-yl)(4-(5-(4-nitrophenyl)imidazo[2,1-b][1,3,4]thiadiazol-2-yl)phenyl)methanone]"
–,25 to 50%,–,25 to 50%,"CN1CCN(C(=O)c2ccc(-c3nn4c(-c5ccc(C#N)nc5)cnc4s3)cc2)CC1 [Compound 27, 5-(2-(4-(4-methylpiperazine-1-carbonyl)phenyl)imidazo[2,1-b][1,3,4]thiadiazol-5-yl)picolinonitrile]"
200 to 800 nM,> 75%,800 to 1500 nM,50 to 75%,"CN1CCN(C(=O)c2ccc(-c3nn4c(-c5ccc(F)nc5)cnc4s3)cc2)CC1 [Compound 28, (4-(5-(6-fluoropyridin-3-yl)imidazo[2,1-b][1,3,4]thiadiazol-2-yl)phenyl)(4-methylpiperazin-1-yl)methanone]"
< 50 nM,> 75%,< 50 nM,> 75%,"N#Cc1ccc(-c2cnc3sc(-c4ccc(C(=O)N5CCCC5)cc4)nn23)cc1 [Compound 30, 4-(2-(4-(pyrrolidine-1-carbonyl)phenyl)imidazo[2,1-b][1,3,4]thiadiazol-5-yl)benzonitrile]"
–,25 to 50%,–,25 to 50%,"N#Cc1ccc(-c2csc3nc(-c4ccc(C(=O)N5CCOCC5)cc4)cn23)cc1 [Compound 43, 4-(6-(4-(morpholine-4-carbonyl)phenyl)imidazo[2,1-b]thiazol-3-yl)benzonitrile]"
–,25 to 50%,–,25 to 50%,"O=C(c1ccc(-c2cn3c(-c4ccc(F)cc4)csc3n2)cc1)N1CCOCC1 [Compound 44, (4-(3-(4-fluorophenyl)imidazo[2,1-b]thiazol-6-yl)phenyl)(morpholino)methanone]"
–,25 to 50%,–,25 to 50%,"COc1ccc(-c2csc3nc(-c4ccc(C(=O)N5CCOCC5)cc4)cn23)cc1 [Compound 45, (4-(3-(4-methoxyphenyl)imidazo[2,1-b]thiazol-6-yl)phenyl)(morpholino)methanone]"
–,25 to 50%,–,25 to 50%,"O=C(c1ccc(-c2cn3c(-c4ccc(C(F)(F)F)cc4)csc3n2)cc1)N1CCOCC1 [Compound 46, morpholino(4-(3-(4-(trifluoromethyl)phenyl)imidazo[2,1-b]thiazol-6-yl)phenyl)methanone]"
–,25 to 50%,–,25 to 50%,"O=C(c1ccc(-c2cn3c(-c4ccc(Cl)cc4)csc3n2)cc1)N1CCOCC1 [Compound 47, (4-(3-(4-chlorophenyl)imidazo[2,1-b]thiazol-6-yl)phenyl)(morpholino)methanone]"
–,25 to 50%,–,25 to 50%,"CN1CCN(C(=O)c2ccc(-c3cn4c(-c5ccc(C#N)cc5)csc4n3)cc2)CC1 [Compound 48, 4-(6-(4-(4-methylpiperazine-1-carbonyl)phenyl)imidazo[2,1-b]thiazol-3-yl)benzonitrile]"
–,25 to 50%,–,25 to 50%,"CN1CCN(C(=O)c2ccc(-c3cn4c(-c5ccc(F)cc5)csc4n3)cc2)CC1 [Compound 49, (4-(3-(4-fluorophenyl)imidazo[2,1-b]thiazol-6-yl)phenyl)(4-methylpiperazin-1-yl)methanone]"
–,25 to 50%,–,25 to 50%,"CN1CCN(C(=O)c2ccc(-c3cn4c(-c5ccc(C(F)(F)F)cc5)csc4n3)cc2)CC1 [Compound 50, (4-methylpiperazin-1-yl)(4-(3-(4-(trifluoromethyl)phenyl)imidazo[2,1-b]thiazol-6-yl)phenyl)methanone]"
–,25 to 50%,–,25 to 50%,"CN1CCN(C(=O)c2ccc(-c3cn4c(-c5ccc(Cl)cc5)csc4n3)cc2)CC1 [Compound 51, (4-(3-(4-chlorophenyl)imidazo[2,1-b]thiazol-6-yl)phenyl)(4-methylpiperazin-1-yl)methanone]"
–,25 to 50%,–,25 to 50%,"O=C(c1ccc(-c2cn3c(-c4ccc(F)cc4)csc3n2)cc1)N1CCC(N2CCOCC2)CC1 [Compound 52, 6-(4-(4-morpholinepiperidinebasecarbonyl)phenyl)-3-(4-fluorinatedphenyl) imidazole [2,1-b]thiazole compounds]"
–,25 to 50%,–,25 to 50%,"CN(C)C1CCN(C(=O)c2ccc(-c3cn4c(-c5ccc(F)cc5)csc4n3)cc2)CC1 [Compound 53, (4-(dimethylamino)piperidin-1-yl)(4-(3-(4-fluorophenyl)imidazo[2,1-b]thiazol-6-yl)phenyl)methanone]"

# The remaining lines, values behind:
Structure (SMILES),IC50 (MNK2),inhibition at 1 µM (MNK2),IC50 (MNK1),inhibition at 1 µM (MNK1)
"CN1CCN(C(=O)c2ccc(-c3nn4c(-c5ccc(F)cc5F)cnc4s3)cc2)CC1 [Compound 26, (4-(5-(2,4-difluorophenyl)imidazo[2,1-b][1,3,4]thiadiazol-2-yl)phenyl)(4-methylpiperazin-1-yl)methanone]",–,25 to 50%,–,25 to 50%
"CN1CCN(C(=O)c2ccc(-c3nn4c(-c5ccc(C(F)(F)F)nc5)cnc4s3)cc2)CC1 [Compound 29, (4-methylpiperazin-1-yl)(4-(5-(6-(trifluoromethyl)pyridin-3-yl)imidazo[2,1-b][1,3,4]thiadiazol-2-yl)phenyl)methanone]",–,25 to 50%,–,25 to 50%
"N#Cc1ccc(-c2cnc3sc(-c4ccc(C(=O)OCCN5CCCC5)cc4)nn23)cc1 [Compound 31, 2-(pyrrolidin-1-yl)ethyl 4-(5-(4-cyanophenyl)imidazo[2,1-b][1,3,4]thiadiazol-2-yl)benzoate]",–,25 to 50%,–,25 to 50%
"N#Cc1ccc(-c2cnc3sc(-c4ccc(C(=O)OCCCCCO)cc4)nn23)cc1 [Compound 34, 5-hydroxypentyl 4-(5-(4-cyanophenyl)imidazo[2,1-b][1,3, 4]thiadiazol-2-yl)benzoate]",–,25 to 50%,–,25 to 50%
"N#Cc1ccc(-c2cnc3sc(-c4ccc(C(=O)SCCO)cc4)nn23)cc1 [Compound 35, S-(2-hydroxyethyl)4-(5-(4-cyanophenyl)imidazo[2,1-b][1,3,4]thiadiazol-2-yl)benzothioate]",–,25 to 50%,–,25 to 50%
"CN(C)CCNC(=O)c1ccc(-c2nn3c(-c4ccc(C#N)cc4)cnc3s2)cc1 [Compound 36, 4-(5-(4-cyanophenyl)imidazo[2,1-b][1,3,4]thiadiazol-2-yl)-N-(2-(dimethylamino)ethyl)benzamide]",< 50 nM,> 75%,< 50 nM,> 75%
"N#Cc1ccc(-c2cnc3sc(-c4ccc(C(=O)NCCCN5CCOCC5)cc4)nn23)cc1 [Compound 37, 4-(5-(4-cyanophenyl)imidazo[2,1-b][1,3,4]thiadiazol-2-yl)-N-(3-morpholinopropyl)benzamide]",< 50 nM,> 75%,< 50 nM,> 75%
"N#Cc1ccc(-c2cnc3sc(-c4ccc(C(=O)NCCN5CCCC5)cc4)nn23)cc1 [Compound 38, 4-(5-(4-cyanophenyl)imidazo[2,1-b][1,3,4]thiadiazol-2-yl)-N-(2-(pyrrolidin-1-yl)ethyl)benzamide]",< 50 nM,> 75%,< 50 nM,> 75%
"N#Cc1ccc(-c2cnc3sc(-c4ccc(C(=O)NCCCO)cc4)nn23)cc1 [Compound 39, 4-(5-(4-cyanophenyl)imidazo[2,1-b][1,3,4]thiadiazol-2-yl)-N-(3-hydroxypropyl)benzamide]",< 50 nM,> 75%,< 50 nM,> 75%
"N#Cc1ccc(-c2cnc3sc(-c4ccc(C(=O)NCCO)cc4)nn23)cc1 [Compound 40, 4-(5-(4-cyanophenyl)imidazo[2,1-b][1,3,4]thiadiazol-2-yl)-N-(2-hydroxyethyl)benzamide]",< 50 nM,> 75%,< 50 nM,> 75%
"CC1CCCCN1C(=O)c1ccc(-c2nn3c(-c4ccc(C#N)cc4)cnc3s2)cc1 (stereo not drawn) [Compound 41, 4-(2-(4-(2-methylpiperidine-1-carbonyl)phenyl)imidazo[2,1-b][1,3,4]thiadiazol-5-yl)benzonitrile]",< 50 nM,> 75%,< 50 nM,> 75%
"N#Cc1ccc(-c2cnc3sc(-c4ccc(C(=O)NCCCCCO)cc4)nn23)cc1 [Compound 42, 4-(5-(4-cyanophenyl)imidazo[2,1-b][1,3,4]thiadiazol-2-yl)-N-(5-hydroxypentyl)benzamide]",< 50 nM,> 75%,< 50 nM,> 75%
